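Step 1: Grow cells in 96-well plates. Step 2: Expose to compound for 48 hours at 5 concentrations. Step 3: Interpolate endpoints linearly; if unreached, use highest concentration. Here, GI50 denotes the concentration required for 50% inhibition of growth. Definition used: TGI = concentration required for complete inhibition of growth.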

Holding throughout (test): growth of human tumour cells (NCI), 48 h
The subject of test [1] is 786-0 renal.
Test [2] deals with ACHN renal.
Test [3] concerns EKVX NSCLC.
Test [4] relates to HCT-15 colon.
The subject of test [5] is HL-60(TB) leukemia.
The test system of test [6] is M14 melanoma.
Test [7] concerns SF-295 CNS.
Test [8] relates to SNB-19 CNS.
The test system of test [9] is SR leukemia.
For test [10], the system named is UACC-257 melanoma.

`C[C@@H]1O[C@@H](O[C@@H]2[C@@H](O)[C@H](OCCc3ccc(O)c(O)c3)O[C@H](CO)[C@H]2OC(=O)/C=C/c2ccc(O)c(O)c2)[C@H](O)[C@H](OC2OC[C@](O)(CO)[C@H]2O)[C@H]1O` (stereo not given in full): the GI50 in test [1] was 84.7 µM; in test [2] it was above 100 µM; in test [3], 63.9 µM; in test [4], above 100 µM; in test [5] it was above 100 µM; in [6] it was above 100 µM. Moreover, the GI50 is above 100 µM in [7], above 100 µM in test [8], above 100 µM in test [9] and 27 µM in test [10]. In addition, the TGI in test [1], in [2], in [3], in test [4], in test [5] and in test [6] was above 100 µM each time. The TGI in [7] is above 100 µM; in test [8], above 100 µM; in test [9] it was above 100 µM; in test [10], 90.1 µM.
With `COc1cc2c(cc1F)C(c1ccccc1Cl)=Nc1c(n[nH]c1C)N2`, the GI50 in test [1] is 1.82 µM; in test [2], 1.45 µM; in test [3], 2.84 µM; in [4], 0.705 µM; in [5], 0.838 µM; in [6], 0.911 µM. Besides, the GI50 in [7] was 0.477 µM; in test [8], 8.69 µM; in test [9], 0.417 µM; in test [10], 11.1 µM. Besides, the TGI in test [1] worked out at 19.3 µM; in [2] it was 10.2 µM; in test [3], 18.4 µM; in [4], 19.7 µM; in [5] it was 20.8 µM; in test [6], 22 µM. In addition, the TGI amounted to 15.7 µM in test [7], 22.3 µM in test [8], 32.8 µM in test [9] and 25.4 µM in [10].
Consider `O=Cc1ccc2c(c1I)OCO2`, for which the TGI in [1], in [2], in test [3], in test [4], in test [5] and in [6] was above 100 µM throughout. The TGI in test [7], in test [8], in [9] and in test [10] was above 100 µM each time.
Consider `CC1C=CC(OC(=O)C(C)(O)CCC(O)(C(=O)OC2CC(O)C(C(C)C)CC2(C)O)C(C)C)(C(C)C)CC1` (stereo not given), for which the GI50 in [1] is 0.681 µM; in test [2] it was 0.322 µM; in test [3] it was 0.618 µM; in test [4], 0.235 µM; in test [5], 0.655 µM; in test [6] it was 0.745 µM. Also, the GI50 was 0.657 µM in test [7], 1.19 µM in test [8], 0.263 µM in [9] and 0.911 µM in [10]. Moreover, the TGI stood at 1.37 µM in [1]; 0.949 µM in [2]; 1.41 µM in test [3]; 0.869 µM in test [4]; 1.68 µM in [5]; 1.81 µM in test [6]. Also, the TGI turned out to be 1.41 µM in [7], 16.2 µM in test [8], 46.3 µM in test [9] and 2.56 µM in [10].
Consider `N#CCN1C(=O)c2cc([N+](=O)[O-])cc3cc([N+](=O)[O-])cc(c23)C1=O`, for which the TGI was 42.8 µM in test [1]; 26.3 µM in [2]; 55.8 µM in test [3]; 20.3 µM in [4]; above 24.1 µM in [5]; 48.2 µM in test [6]. Moreover, the TGI is above 100 µM in test [7], above 100 µM in test [8], 12.6 µM in [9] and 28.6 µM in test [10].
With `O=C1c2ccccc2N2OC3(N4CCCC4)CCCCC3C12c1ccccc1` (stereo not given), the TGI in test [1] is 31.6 µM; in test [2] it was 43.8 µM; in test [3], above 100 µM; in [4], above 100 µM; in test [5] it was 53.7 µM; in test [6], 34.6 µM. The TGI in test [7] is 32.7 µM; in [8], above 100 µM; in test [9], above 100 µM; in [10], 45.6 µM.
As to `C[C@@H]1Cc2cc(O)ccc2[C@H]2CC[C@]3(C)/C(=C/COCCN(C)C)CC[C@H]3[C@H]12` (tested in a mixture with another compound), the GI50 was 0.198 µM in test [1]; 0.0429 µM in test [2]; 0.145 µM in test [3]; 0.205 µM in test [4]; 0.244 µM in test [5]; 0.381 µM in test [6]. For the same compound, the GI50 in test [7] was 0.175 µM; in test [8] it was 0.364 µM; in test [9] it was 0.212 µM; in test [10], 0.495 µM. Moreover, the TGI in test [1] amounted to 0.618 µM; in [2], 0.201 µM; in test [3], 0.472 µM; in test [4] it was 0.55 µM; in [5], 0.628 µM; in [6], 1.44 µM. The TGI in test [7] is 0.474 µM; in test [8], 1.34 µM; in [9], 0.55 µM; in test [10], 2.01 µM.
With `CCOC(=O)/C(I)=C/c1cc(OC)c(OC)c(OC)c1`, the TGI in test [1] is 33 µM; in [2], 28.2 µM; in [3], 42.9 µM; in test [4], 17.1 µM; in test [5] it was 26.1 µM; in test [6] it was 14.7 µM. Further, the TGI in test [7] was 54.4 µM; in test [8] it was 31.8 µM; in test [9] it was 8.8 µM; in test [10] it was 25.7 µM.
Consider `COC(=O)C(C(=O)C(=O)Nc1ccc([N+](=O)[O-])cc1)c1nc2ccc([N+](=O)[O-])cc2[nH]c1=O` (stereo not given), for which the TGI in [1], in [2], in [3], in test [4], in test [5] and in test [6] was above 100 µM in each case. Moreover, the TGI in [7], in test [8], in test [9] and in [10] was above 100 µM throughout.
